Experimental data taken from patent US9486455B2, “Compounds for modulating TRPV3 function” (HYDRA BIOSCIENCES, INC., priority 2007, dated 2016).
Where two headings read alike, the source gives them in different places.

What was measured:
TRPV3 channel = molecular target: T1, TRPV3 channel (Homo sapiens, UniProt Q8NET8); assay: High-throughput screening assay: Ca2+ rise after 2-APB activation in HEK293/TREx cells inducibly expressing TRPV3; assay type: cell-based; settings: read-out: IC50 for inhibition of TRPV3 activity; Ca2+ flux, Fura-2, 150 μM 2-APB
T1 construct: expressed in transfected cells; host or cells: HEK293/TREx (Invitrogen), tetracycline-induced
T1 sequence (Q8NET8 1-790): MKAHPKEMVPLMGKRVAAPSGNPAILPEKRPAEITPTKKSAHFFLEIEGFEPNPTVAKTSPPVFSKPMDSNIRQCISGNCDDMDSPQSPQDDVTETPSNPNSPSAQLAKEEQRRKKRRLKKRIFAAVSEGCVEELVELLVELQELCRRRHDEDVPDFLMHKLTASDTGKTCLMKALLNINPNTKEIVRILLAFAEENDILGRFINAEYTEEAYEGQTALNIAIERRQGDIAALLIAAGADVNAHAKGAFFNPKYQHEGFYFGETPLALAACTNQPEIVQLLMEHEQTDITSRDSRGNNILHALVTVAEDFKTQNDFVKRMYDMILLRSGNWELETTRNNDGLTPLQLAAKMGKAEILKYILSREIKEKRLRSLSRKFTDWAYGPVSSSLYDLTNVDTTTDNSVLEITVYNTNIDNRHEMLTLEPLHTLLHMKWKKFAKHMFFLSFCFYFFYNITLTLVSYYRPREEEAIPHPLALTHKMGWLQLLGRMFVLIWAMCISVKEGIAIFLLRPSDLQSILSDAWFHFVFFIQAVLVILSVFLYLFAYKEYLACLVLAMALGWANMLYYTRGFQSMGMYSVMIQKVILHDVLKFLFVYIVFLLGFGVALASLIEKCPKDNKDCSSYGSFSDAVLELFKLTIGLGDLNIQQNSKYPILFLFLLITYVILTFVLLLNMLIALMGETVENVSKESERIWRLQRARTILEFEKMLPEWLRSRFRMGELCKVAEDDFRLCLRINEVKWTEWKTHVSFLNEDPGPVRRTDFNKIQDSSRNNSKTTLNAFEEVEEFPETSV
From the text: The assay depends on detection of the rise in intracellular Ca^2+ concentration ([Ca^2+]i) following channel activation in cells inducibly expressing the TRPV3 channel. Ca^2+ rise is quantified with the use of fluorescent Ca^2+ indicators that are loaded into cells and thereafter indicated the [Ca^2+]i. Ca^2+ influx follows activation of the TRPV3 channel. Compounds inhibiting this [Ca^2+]i rise are considered hits for further investigation.
The commercially available HEK293/TREx line (Invitrogen) was stably transfected with a TRPV3 construct and screened by immunostaining to find clones with TRPV3 expression following stimulation with 1 μg/ml tetracycline. Clonal TRPV3-expressing cells were maintained in the growth medium recommended by the manufacturer supplemented with 100 μg/ml hygromycin to promote retention of the TRPV3 construct. After growing to near confluency, cells are plated at a density of ˜25,000 cells/well in 384 well plates in the presence of 1 μg/ml tetracycline, and allowed to grow for 20-30 hrs. A nearly confluent monolayer results. […] These controls defined a screening window, and “hits” were defined as those test compounds inhibiting the fluorescence response by at least 40%.

human (h) TRPV3 = molecular target: T2, human (h) TRPV3 (Homo sapiens, UniProt Q8NET8); assay: Whole-cell patch clamp, human TRPV3-mediated currents; assay type: cell-based;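 note: compounds tested at concentrations up to 30 µM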
T2 construct: expressed in transfected cells; host or cells: HEK293/TREx, tetracycline-induced
T2 sequence (Q8NET8 1-790): T1 sequence (Q8NET8 1-790)
From the text: (§1) Whole-cell patch clamp experiments permit the detection of currents through the TRPV3 channel in the cell line described above. A glass electrode is brought into contact with a single cell and the membrane is then ruptured, permitting control of the voltage of the cell membrane and measurement of currents flowing across the membrane using the amplifier attached to the electrode. A perfusion system permits control of the extracellular solution, including the addition of blockers and activators of the current. The current can be activated by heating this solution to 28° C. or warmer or by addition of 20 μM 2-APB to the solution.
(§2) TRPV3 cells were induced 20-48 hours, removed from growth plates, and replated at low density (to attain good single-cell physical separation) on glass coverslips for measurement. In some cases, cells were grown in low density overnight on glass coverslips. Patch clamp recordings were made in the whole-cell mode with a holding potential of −40 mV. Every 5 seconds, a voltage ramp was applied from −120 to +100 mV, 400 ms in duration. Currents elicited were quantified at −80 mV and +80 mV. The internal solution consisted of 140 mM cesium aspartate, 10 mM EGTA, 2.27 mM MgCl2, 1.91 mM CaCl2 and 10 mM HEPES, pH to 7.2 with KOH; with 50 nM calculated free Ca^2+. External solution was Ringer's solution described above. Upon addition of 2-APB or upon heating of the extracellular solution as described above, TRPV3 current was induced only in TRPV3-expressing cells and not in parental HEK293 TREx cells. […] Removal of the stimulus caused most of the current to go away, and inhibitor addition could still inhibit this current. […]
(§3) P1 refers to the Phase 1 current for human (h) and rat (r) TRPV3, and P2 refers to the Phase 2 current for human (h) and rat (r) TRPV3.

hERG = hERG (Homo sapiens, UniProt Q12809); assay: in vitro
Procedure: Compounds of interest can be tested against these channels at concentrations up to 30 μM, and the resulting data can be used to estimate IC50 for inhibition of the activity of these other ion channels.

rat (r) TRPV3 = molecular target: T3, rat (r) TRPV3 (Rattus norvegicus, UniProt Q4QYD9); assay: Whole-cell patch clamp, rat TRPV3-mediated currents; assay type: cell-based;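 note: compounds tested at concentrations up to 30 µM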
T3 construct: expressed in transfected cells
T3 sequence (Q4QYD9 1-791): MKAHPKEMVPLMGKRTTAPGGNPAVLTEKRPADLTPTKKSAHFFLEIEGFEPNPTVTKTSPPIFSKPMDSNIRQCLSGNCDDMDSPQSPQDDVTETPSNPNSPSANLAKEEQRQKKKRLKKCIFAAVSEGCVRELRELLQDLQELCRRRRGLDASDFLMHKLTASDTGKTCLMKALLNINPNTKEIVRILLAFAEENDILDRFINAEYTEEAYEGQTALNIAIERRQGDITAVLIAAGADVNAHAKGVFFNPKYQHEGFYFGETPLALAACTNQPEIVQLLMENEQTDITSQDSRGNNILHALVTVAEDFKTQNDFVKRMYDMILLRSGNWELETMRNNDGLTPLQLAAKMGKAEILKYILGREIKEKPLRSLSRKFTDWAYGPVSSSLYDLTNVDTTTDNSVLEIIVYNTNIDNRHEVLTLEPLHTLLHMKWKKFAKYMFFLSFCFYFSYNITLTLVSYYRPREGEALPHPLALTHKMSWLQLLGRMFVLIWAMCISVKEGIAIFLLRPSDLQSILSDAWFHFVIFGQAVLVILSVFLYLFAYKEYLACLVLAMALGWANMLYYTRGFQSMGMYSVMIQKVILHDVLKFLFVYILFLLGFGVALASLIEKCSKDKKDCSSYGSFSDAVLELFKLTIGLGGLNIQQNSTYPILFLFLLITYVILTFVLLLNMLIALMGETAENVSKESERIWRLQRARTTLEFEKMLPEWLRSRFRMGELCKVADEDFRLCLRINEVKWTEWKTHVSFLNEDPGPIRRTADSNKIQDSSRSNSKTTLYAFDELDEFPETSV
From the text: as §1, §2, §3

hERG, sequence (Q12809 whole entry): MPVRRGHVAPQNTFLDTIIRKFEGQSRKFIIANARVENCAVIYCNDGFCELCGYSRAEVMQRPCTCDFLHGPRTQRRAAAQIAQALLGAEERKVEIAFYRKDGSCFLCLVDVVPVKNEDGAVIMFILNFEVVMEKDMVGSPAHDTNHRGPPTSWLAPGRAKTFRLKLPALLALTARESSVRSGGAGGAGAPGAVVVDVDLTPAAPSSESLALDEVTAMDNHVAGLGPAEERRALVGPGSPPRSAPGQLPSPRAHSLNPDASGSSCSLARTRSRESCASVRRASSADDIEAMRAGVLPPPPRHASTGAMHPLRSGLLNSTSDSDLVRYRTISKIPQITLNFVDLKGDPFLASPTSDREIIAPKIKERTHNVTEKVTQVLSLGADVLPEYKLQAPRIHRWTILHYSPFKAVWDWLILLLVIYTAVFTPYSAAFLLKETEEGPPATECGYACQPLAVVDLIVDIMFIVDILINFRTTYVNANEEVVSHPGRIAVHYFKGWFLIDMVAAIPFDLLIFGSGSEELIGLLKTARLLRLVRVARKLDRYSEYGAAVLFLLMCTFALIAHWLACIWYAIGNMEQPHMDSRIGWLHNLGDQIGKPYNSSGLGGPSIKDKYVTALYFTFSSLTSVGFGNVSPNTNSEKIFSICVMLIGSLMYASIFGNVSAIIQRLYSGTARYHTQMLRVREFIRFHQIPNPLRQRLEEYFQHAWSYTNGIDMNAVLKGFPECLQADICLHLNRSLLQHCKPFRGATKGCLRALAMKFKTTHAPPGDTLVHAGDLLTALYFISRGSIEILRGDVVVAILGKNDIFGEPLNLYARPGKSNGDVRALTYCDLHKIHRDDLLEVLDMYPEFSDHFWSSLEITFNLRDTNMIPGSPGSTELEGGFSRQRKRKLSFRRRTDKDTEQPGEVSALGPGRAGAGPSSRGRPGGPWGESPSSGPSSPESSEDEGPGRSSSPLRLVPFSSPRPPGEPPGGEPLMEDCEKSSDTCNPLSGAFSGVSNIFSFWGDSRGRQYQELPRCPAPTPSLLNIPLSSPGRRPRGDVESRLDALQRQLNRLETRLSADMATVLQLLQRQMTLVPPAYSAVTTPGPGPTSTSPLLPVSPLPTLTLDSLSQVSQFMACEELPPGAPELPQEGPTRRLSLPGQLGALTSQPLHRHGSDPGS

| Structure (SMILES) | IC50 (TRPV3 channel) [nM] | IC50 (human (h) TRPV3; Phase 1 inward current, read-out: P1 In (h)) [nM] | IC50 (human (h) TRPV3; Phase 1 outward current, read-out: P1 Out (h)) [nM] | IC50 (human (h) TRPV3; Phase 2 inward current, read-out: P2 In (h)) [nM] | IC50 (human (h) TRPV3; Phase 2 outward current, read-out: P2 Out (h)) [nM] | IC50 (hERG) [nM] | IC50 (rat (r) TRPV3; Phase 1 inward current, read-out: P1 In (r)) [nM] | IC50 (rat (r) TRPV3; Phase 1 outward current, read-out: P1 Out (r)) [nM] | IC50 (rat (r) TRPV3; Phase 2 inward current, read-out: P2 In (r)) [nM] | IC50 (rat (r) TRPV3; Phase 2 outward current, read-out: P2 Out (r)) [nM] |
| --- | --- | --- | --- | --- | --- | --- | --- | --- | --- | --- |
| Cc1cccc(C)c1-n1c(/C=C/c2cccc3cn[nH]c23)nc2ccccc2c1=O [Compound 40] | < 5000 |  |  |  |  |  |  |  |  |  |
| COc1nccc(/C=C/c2nc3ccccc3c(=O)n2-c2c(C)cccc2C)c1O [Compound 37] |  | ≤ 500 | ≤ 500 | ≤ 500 | ≤ 500 | ≥ 20000 | ≤ 500 | ≤ 500 | ≤ 500 | ≤ 500 |
